Target: SARS-CoV-2 Mpro (Severe acute respiratory syndrome coronavirus 2, UniProt P0DTD1)
Assay: biochemical
Type: biochemical
Conditions: for SARS-CoV-2 Mpro inhibition, result in words: inactivity = IC50 > 30 μM; for IC50: FRET assay, concentration reducing Mpro activity by 50%, mean ± SD of three independent experiments, highest concentration tested 30 μM

SMILES | SARS-CoV-2 Mpro inhibition, result in words | IC50
O=C1CSC(c2ccc([N+](=O)[O-])cc2)N1CCc1ccccc1 (stereo not drawn) [Compound 4a, 2-(4-nitrophenyl)-3-(phenylethyl)-1,3-thiazolidin-4-one] | inactive | 
O=C1CSC(c2ccc([N+](=O)[O-])cc2)N1CCc1cccc(F)c1 (stereo not drawn) [Compound 4c, 2-(4-nitrophenyl)-3-(3-fluorophenylethyl)-1,3-thiazolidin-4-one] | inactive | 
COc1ccccc1CCN1C(=O)CSC1c1ccc([N+](=O)[O-])cc1 (stereo not drawn) [Compound 4e] | inactive | > 30 µM
COc1ccc(CCN2C(=O)CSC2c2ccc([N+](=O)[O-])cc2)cc1 (stereo not drawn) [Compound 4f] | inactive | > 30 µM
O=C1CSC(c2ccc([N+](=O)[O-])cc2)N1CCc1ccccc1Cl (stereo not drawn) [Compound 4g] |  | 26 ± 4 µM
O=C1CSC(c2ccc([N+](=O)[O-])cc2)N1CCc1ccc(Cl)cc1 (stereo not drawn) [Compound 4i] | inactive | > 30 µM
